# ± gives the expanded uncertainty stated by the source.
# Details: 101.33 kPa, Liquid, Vibrating tube method
SMILES,mass density (288.15 K) [kg/m3],mass density (298.15 K) [kg/m3],mass density (313.15 K) [kg/m3],mass density (328.15 K) [kg/m3],mass density (338.15 K) [kg/m3],mass density (348.15 K) [kg/m3]
"CCOC(=O)CC(=O)OCC [diethyl 1,3-propanedioate]",1060.33 ± 0.061,1049.6 ± 0.057,1033.5 ± 0.051,1017.34 ± 0.045,1006.5 ± 0.042,995.631 ± 0.041
CCOC(C)=O [ethyl acetate],906.547 ± 0.11,894.381 ± 0.12,875.812 ± 0.12,856.813 ± 0.13,843.858 ± 0.13,830.622 ± 0.14
CC(C)CO [2-methyl-1-propanol],806.121 ± 0.14,798.409 ± 0.14,786.515 ± 0.15,774.113 ± 0.15,765.452 ± 0.15,756.435 ± 0.16

# Continued, values first:
mass density (288.15 K) [kg/m3],mass density (298.15 K) [kg/m3],mass density (313.15 K) [kg/m3],mass density (328.15 K) [kg/m3],mass density (338.15 K) [kg/m3],mass density (348.15 K) [kg/m3],SMILES
813.604 ± 0.11,805.984 ± 0.11,794.34 ± 0.12,782.323 ± 0.12,774.032 ± 0.13,765.48 ± 0.13,CCCCO [butan-1-ol]
819.154 ± 0.14,811.8 ± 0.14,800.574 ± 0.14,789.007 ± 0.15,781.05 ± 0.15,772.873 ± 0.15,CCCCCO [pentan-1-ol]
688.254 ± 0.25,679.787 ± 0.25,666.893 ± 0.25,653.72 ± 0.26,644.767 ± 0.26,635.631 ± 0.26,CCCCCCC [heptane]

# Reference: the NIST ThermoML archive (doi:10.1016/j.fluid.2009.11.030)
